Tests used:
Format in all cases: functional, cell-based
HT-29 = assay: Cytotoxicity against human HT29 cells after 48 hrs; conditions: HT-29, 48 h
Jurkat = assay: Cytotoxicity against human Jurkat cells after 48 hrs
B16-F10 = assay: Cytotoxicity against mouse B16F10 cells after 48 hrs; conditions: B16-F10, 48 h

CCC/C=C/CC1C/C=C/C=C(C)/C=C/C=C\C(O)CC(O)C(O)/C=C/C=C/C=C/C(=O)N1 (stereo not drawn) [AUREOVERTICILLACTAM]
EC50 (HT-29): 3.6 µM
EC50 (Jurkat): 2.3 µM
EC50 (B16-F10): 2.2 µM

Source: ChEMBL document CHEMBL1148208, “Aureoverticillactam, a novel 22-atom macrocyclic lactam from the marine actinomycete Streptomyces aureoverticillatus” (J Nat Prod, 2004)
